According to publication PMC3271735 (Journal of the American Chemical Society, 2012):

Tests used:
Type in all cases: biochemical
Details in all cases: 100 μM inhibitor
Sirt1 = target: T1, Sirt1 (Homo sapiens, UniProt Q96EB6); test: Sirt1 inhibition assay
T1 sequence (Q96EB6 1-747): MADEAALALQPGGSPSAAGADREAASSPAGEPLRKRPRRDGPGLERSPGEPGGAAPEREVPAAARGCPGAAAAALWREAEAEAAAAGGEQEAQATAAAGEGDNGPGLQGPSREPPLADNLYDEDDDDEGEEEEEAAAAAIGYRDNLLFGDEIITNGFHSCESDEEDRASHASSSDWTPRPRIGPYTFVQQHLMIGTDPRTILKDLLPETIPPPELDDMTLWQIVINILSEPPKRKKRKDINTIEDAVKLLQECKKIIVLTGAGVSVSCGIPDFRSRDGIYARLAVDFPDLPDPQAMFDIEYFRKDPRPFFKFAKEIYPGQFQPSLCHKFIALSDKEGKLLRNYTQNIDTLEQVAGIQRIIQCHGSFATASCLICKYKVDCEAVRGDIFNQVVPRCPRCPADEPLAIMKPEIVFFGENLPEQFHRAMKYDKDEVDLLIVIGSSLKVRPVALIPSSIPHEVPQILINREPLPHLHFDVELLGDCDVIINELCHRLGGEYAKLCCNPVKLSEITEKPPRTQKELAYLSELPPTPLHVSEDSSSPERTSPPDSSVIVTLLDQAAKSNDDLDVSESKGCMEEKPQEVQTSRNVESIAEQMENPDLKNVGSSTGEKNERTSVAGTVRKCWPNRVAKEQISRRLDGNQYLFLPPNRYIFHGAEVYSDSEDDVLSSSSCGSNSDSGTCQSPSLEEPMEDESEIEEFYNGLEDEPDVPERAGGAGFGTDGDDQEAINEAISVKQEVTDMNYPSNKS

Sirt3 = target: T2, Sirt3 (Homo sapiens, UniProt Q9NTG7); test: Sirt3 inhibition assay
T2 sequence (Q9NTG7 1-399): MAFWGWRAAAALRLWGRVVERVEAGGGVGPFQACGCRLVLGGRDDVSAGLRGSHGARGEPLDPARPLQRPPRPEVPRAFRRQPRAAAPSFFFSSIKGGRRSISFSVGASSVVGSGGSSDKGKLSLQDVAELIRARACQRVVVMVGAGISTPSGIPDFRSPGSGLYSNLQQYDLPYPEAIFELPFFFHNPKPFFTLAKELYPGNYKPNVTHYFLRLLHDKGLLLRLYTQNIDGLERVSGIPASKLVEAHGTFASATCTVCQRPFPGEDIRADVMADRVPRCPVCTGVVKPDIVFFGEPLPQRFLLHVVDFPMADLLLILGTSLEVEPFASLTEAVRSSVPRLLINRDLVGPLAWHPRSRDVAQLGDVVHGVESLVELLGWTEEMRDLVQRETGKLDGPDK

Sirt2 = target: T3, Sirt2 (Homo sapiens, UniProt Q8IXJ6); test: Sirt2 inhibition assay
T3 sequence (Q8IXJ6 1-389): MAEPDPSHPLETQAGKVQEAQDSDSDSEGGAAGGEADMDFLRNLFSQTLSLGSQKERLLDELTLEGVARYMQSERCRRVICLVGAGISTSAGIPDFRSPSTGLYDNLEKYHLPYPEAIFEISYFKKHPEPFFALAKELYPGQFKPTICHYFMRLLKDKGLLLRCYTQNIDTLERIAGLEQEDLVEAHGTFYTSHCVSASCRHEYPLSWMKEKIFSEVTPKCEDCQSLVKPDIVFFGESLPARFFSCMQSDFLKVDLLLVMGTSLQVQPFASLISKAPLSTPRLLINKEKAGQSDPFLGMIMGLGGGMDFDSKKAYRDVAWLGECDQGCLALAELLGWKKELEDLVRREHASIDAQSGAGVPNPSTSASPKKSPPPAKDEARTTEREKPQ

C[C@H](NC(=O)[C@H](CCCCN)NC(=O)CNC(=O)CNC(=O)[C@@H](NC(=O)[C@H](CO)NC(=O)[C@H](CCCCNC(=S)CCC(=O)O)NC(=O)[C@H](CCCNC(=N)N)NC(=O)[C@H](C)NC(=O)[C@@H](NC(=O)[C@H](CCC(N)=O)NC(=O)[C@@H](N)CCCCN)[C@@H](C)O)[C@@H](C)O)C(=O)O [H3K9TSu, KQTAR(TSuK)STGGKA]
does not inhibit: inhibition of Sirt1 at 100 μM (Sirt1) | inhibition of Sirt3 at 100 μM (Sirt3) | inhibition of Sirt2 at 100 μM (Sirt2)
